Experimental data: patent publication US9168317B2, “In vivo imaging method of mood disorders” (GE Healthcare Limited, priority 2010, dated 2015)
pKi: −log10 of the molar value. Where two headings read alike, the source gives them in different places.

Key:
Wistar rat heart PBR = biological target: T1, Wistar rat heart PBR (Rattus norvegicus, UniProt P16257); assay: In vitro potency assay: competition against 0.3 nM [3H]PK-11195 binding
T1 construct: from tissue; host or cells: Wistar rat heart
Protocol: Non-radioactive analogues of in vivo imaging agents of the invention were tested.
Each test compound (dissolved in 50 mM Tris-HCl, pH 7.4, 10 mM MgCl2 containing 1% DMSO) competed for binding to Wistar rat heart PBR against 0.3 nM [^3H] […] The reaction, was carried out in 50 mM Tris-HCl, pH 7.4 10 mM MgCl2 for 15 minutes at 25° C.

[1] = In vivo biodistribution method; conditions: for Brain 2 min / OB 30 min: adult male Wistar rats, 1-3 MBq via lateral tail vein; for Brain 2 min: 2 min after injection; for OB 30 min: olfactory bulb
Protocol: Imaging agents of the invention were tested in an in vivo biodistribution model.
Adult male Wistar rats (200-300 g) were injected with 1-3 MBq of test compound via the lateral tail vein. At 2, 10, 30 or 60 min (n=3) after injection, rats were euthanised and tissues or fluids were sampled for radioactive measurement on a gamma counter.

SMILES: CCN(CC)C(=O)C1CCCc2c1c1c(OC)cccc1n2CC[18F] (centres unmarked) [compound 5]
- pKi (Wistar rat heart PBR; non-radioactive analogues, vs 0.3 nM [3H]PK-11195, 50 mM Tris-HCl pH 7.4, 10 mM MgCl2, 15 minutes at 25° C., read-out: Ki): 8.83

SMILES: CCN(CC)C(=O)C1CCCc2c1c1cc(F)ccc1n2CC[18F] (centres unmarked) [compound 9]
- Brain 2 min [1]: 0.56 % ID/g
- OB 30 min ([1]; 30 min after injection): 0.41 % ID/g
- pKi (Wistar rat heart PBR): 8.42

SMILES: O=C(C1CCCc2c1c1ccccc1n2CC[18F])N1CCCCC1 (centres unmarked) [compound 6]
- pKi (Wistar rat heart PBR): 7.74

SMILES: CN(Cc1ccccc1)C(=O)C1CCCc2c1c1ccccc1n2CC[18F] (centres unmarked) [compound 7]
- Brain 2 min [1]: 0.55 % ID/g
- OB 30 min ([1]; 30 min after injection): 0.34 % ID/g
- OB:Str 30 min ([1]; ratio olfactory bulb:striatum, 30 min after injection, Wistar rats): 3.40
- pKi (Wistar rat heart PBR): 8.90

SMILES: CCN(CC)C(=O)C1CCCc2c1c1c(F)cccc1n2CC[18F] (centres unmarked) [compound 10]
- Brain 2 min [1]: 0.50 % ID/g
- OB 30 min ([1]; 30 min after injection): 0.51 % ID/g
